Test results: patent publication US8173812B2, “Quinolines and their therapeutic use” (Pulmagen Therapeutics (Asthma) Limited, priority 2007, dated 2012)

Biological target: T1, CRTH2 receptor (Homo sapiens, UniProt Q9Y5Y4)
T1 sequence (Q9Y5Y4 1-395): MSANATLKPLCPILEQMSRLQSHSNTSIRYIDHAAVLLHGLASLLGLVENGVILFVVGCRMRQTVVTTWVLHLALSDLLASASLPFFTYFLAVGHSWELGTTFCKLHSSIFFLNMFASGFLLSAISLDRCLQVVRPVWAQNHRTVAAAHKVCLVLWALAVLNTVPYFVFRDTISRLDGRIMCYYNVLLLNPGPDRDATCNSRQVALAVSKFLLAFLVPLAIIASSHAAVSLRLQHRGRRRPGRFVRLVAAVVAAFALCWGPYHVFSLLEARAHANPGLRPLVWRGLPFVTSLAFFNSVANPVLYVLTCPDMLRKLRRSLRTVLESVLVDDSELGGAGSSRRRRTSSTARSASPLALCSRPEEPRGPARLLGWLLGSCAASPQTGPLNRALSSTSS
Assay: CRTH2 radioligand binding assay ([3H]-PGD2 displacement, SPA)
Details: HEK cell membranes expressing the CRTH2 receptor, 1 nM [3H]-PGD2
Method: Radioligand Binding Assay
The receptor binding assay is performed in a final volume of 200 μL binding buffer [10 mM BES (pH 7.4), 1 mM EDTA, 10 mM manganese chloride, 0.01% BSA] and 1 nM [^3H]-PGD2 (Amersham Biosciences UK Ltd). Ligands are added in assay buffer containing a constant amount of DMSO (1% by volume). Total binding is determined using 1% by volume of DMSO in assay buffer and non-specific binding is determined using 10 μM of unlabeled PGD2 (Sigma). Human embryonic kidney (HEK) cell membranes (3.5 μg) expressing the CRTH2 receptor are incubated with 1.5 mg wheatgerm agglutinin SPA beads and 1 nM [^3H]-PGD2 (Amersham Biosciences UK Ltd) and the mixture incubated for 3 hours at room temperature. Bound [^3H]-PGD2 is detected using a Microbeta TRILUX liquid scintillation counter (Perkin Elmer). Compound IC50 value is determined using a 6-point dose response curve in duplicate with a semi-log compound dilution series. IC50 calculations are performed using Excel and XLfit (Microsoft), and this value is used to determine a Ki value for the test compound using the Cheng-Prusoff equation.

IC50 [nM]	SMILES
5.4	CCc1nc2c(F)ccc(OCC(=O)O)c2c(OC(F)F)c1Cc1ccc(-n2cccn2)cc1 [Example 1, [4-difluoromethoxy-2-ethyl-8-fluoro-3-(4-pyrazol-1-ylbenzyl)quinolin-5-yloxy]acetic acid]
6.3	CCc1nc2c(F)ccc(OCC(=O)O)c2c(OC(F)F)c1Cc1ccc(-c2ncco2)cc1 [Example 2, [4-difluoromethoxy-2-ethyl-8-fluoro-3-(4-oxazol-2-ylbenzyl)quinolin-5-yloxy]acetic acid]
